According to EP2945607B1, “COSMETIC OR DERMATOLOGICAL EMULSION COMPRISING A MEROCYANINE AND AN EMULSIFYING SYSTEM CONTAINING AN ALKALI METAL SALT OF A PHOSPHORIC ACID ESTER OF A FATTY ALCOHOL” (L'Oréal, priority 2013, dated 2014):

Assay: Color of the formulations: colorimetry of thin films on contrast map (spectro-colorimeter Minolta CM2600D), L*a*b* system
Assay type: physicochemical
Conditions: result in words; equivalent formulations (2 % merocyanine)
Method: Protocol for evaluating the color of the formulations
The color of the formulations was evaluated after preparation of thin films on contrast map. The formulations were deposited within a circle of 2.2 cm of diameter and planed to obtain thicknesses of reproducible deposit. The colorimetric measures were then made by means of a spectro-colorimeter Minolta CM2600D in two points of the film. This operation is twice reproduced, which leads to 4 experimental values by formulation.
The results are expressed in the system (L *, has *, b *) in which L* represents the luminance, a* represents the red-green axis (-a* = green, +a* = red) and b* represents the yellow-blue axis (-b* blue, +b* yellow). So, a* and b* express the shade of the compound.
The difference of color ΔE* was calculated from the variations ΔL*, Δa* et Δb* between the compound (2) and the compound MC11 with the following equation : ((ΔE*))^2 = ((ΔL*))^2 + ((Δa*))^2 + ((Δb*))^2 [formula] • ΔL* = L* formulation with compound MC11 - L* formulation with compound (2) • Δa* = a* formulation with compound MC11 - a* formulation with compound (2) • Δb* = b* formulation with compound MC11 - b* formulation with compound (2)
We consider that the difference of color between the two compounds is significant if ΔE* > 2.

Q: Which “color compared with compound MC11 of WO2008/090066” value does the source give for `CCOCCOC(=O)/C(C#N)=C1\C=C(NCCCOC)CCC1` [Compound (2), 2-ethoxyethyl (2Z)-cyano{3-[(3-methoxypropyl)amino]cyclohex-2-en-1-ylidene}ethanoate] here?
A: significantly less yellow
